In US5852018A, “Pharmaceutical piperazine compounds” (Xenova Limited, priority 1994, dated 1998) one finds Emax and IC50 data, which are given here for 29 molecules.

pIC50: −log10 of the molar value.

The test system of the first assay is AR 1.0 cells. Description: Drug accumulation assay (tritiated daunorubicin) in MDR resistant AR 1.0 cells. Type of assay: cell-based. The note with it: Mus musculus, 1 h, DNR 2 μM, 100% = accumulation with 100 μM Verapamil, read-out: MAX accumulation (% 100 μm VRP). The protocol: The EMT6 mouse mammary carcinoma cell line and the MDR resistant subline AR 1.0 were cultured in RPMI 1640 medium containing 10% foetal calf serum and 2 mM glutamine at 37° C. in 5% CO2 . Cells were passaged between 1 in 200 and 1 in 2000 in the case of the parental cell line and between 1 in 20 and 1 in 200 in the case of the MDR resistant subline, after trypsinisation (0.25% trypsin, 0.2 gl^-1, EDTA).
AR 1.0 cells were seeded into 96 well opaque culture plates (Canberra Packard). The assay medium contained a mixture of tritiated Daunorubicin (DNR), a cytotoxic agent, and unlabelled DNR (0.25μ Ci/ml; 2 μM). Compounds of formula A were serially diluted in assay medium over a range of concentrations from 100 nM to 100 μM. The cells were incubated at 37° C. for 1 hr before washing and counting of cell associated radioactivity. Each assay included a titration of the known resistance modifying agent Verapamil as positive control. Results were expressed as % maximum accumulation where 100% accumulation is that observed in the presence of 100 μM Verapamil.
Regarding `COc1ccc(/C=c2\[nH]c(=O)/c(=C/c3ccccc3)n(CC(=O)N3CCCC3)c2=O)cc1` [Compound 1526, N,N-Tetramethylene-(3Z,6Z)-6-benzylidene-3-(4-methoxybenzylidene)-2,5-dioxo-1-piperazinylacetamide], the Emax stood at 23.3%. As to `COc1ccc(/C=c2/c(=O)[nH]/c(=C\c3ccccc3)c(=O)n2CC(=O)N(C)C)cc1` [Compound 1614, N,N,-Dimethyl-(3Z,6Z)-3-benzylidene-6-(4-methoxybenzylidene)-2,5-dioxo-1-piperazinylacetamide], the Emax was 25%. For the molecule `COc1ccc(/C=c2\nc(OCC3CC3)/c(=C/c3ccccc3)n(C)c2=O)cc1` [Compound 1745, (3Z,6Z)-6-Benzylidene-5-cyclopropylmethoxy-3-(4-methoxybenzylidene)-1-methyl-3,6-dihydro-2-pyrazinone], the Emax was determined as 35%. As for `COc1n/c(=C\c2ccccc2)c(=O)n(C)/c1=C\c1ccccc1` [Compound 1771], the Emax was 60%.

As for `Cn1c(=O)/c(=C/c2ccccc2)nc(OCC2CCCCC2)/c1=C/c1ccccc1` [Compound 1780], the Emax was determined as 20%. On the same count and under the same terms, then `CCOc1n/c(=C\c2ccccc2)c(=O)n(C)/c1=C\c1ccccc1` [Compound 1801, (3Z,6Z)-3,6-Dibenzylidene-5-ethoxy-1-methyl-3,6-dihydro-2-pyrazinone], with 40%; and `Cn1c(=O)/c(=C/c2ccccc2)n(CCBr)c(=O)/c1=C/c1ccccc1` [Compound 1803, (3Z,6Z)-3,6-Dibenzylidene-1-(2-bromoethyl)-4-methyl-2,5-piperazinedione], with 50%; and `CC(C)Oc1n/c(=C\c2ccccc2)c(=O)n(C)/c1=C\c1ccccc1` [Compound 1819, (3Z,6Z)-3,6-Dibenzylidene-5-isopropoxy-1-methyl-3,6-dihydro-2-pyrazinone], with 23%. The same measure, in the same setting: then `Cn1c(=O)/c(=C/c2ccccc2)nc(OCCc2ccccc2)/c1=C/c1ccccc1` [Compound 1820, (3Z,6Z)-3,6-Dibenzylidene-1-methyl-5-(2-phenethoxy)-3,6-dihydro-2-pyrazinone], with 34%; and `CC(C)COc1n/c(=C\c2ccccc2)c(=O)n(C)/c1=C\c1ccccc1` [Compound 1821, (3Z,6Z)-3,6-Dibenzylidene-5-isobutoxy-1-methyl-3,6-dihydro-2-pyrazinone], with 35%. The same measure, in the same setting: the same measure for `C=CCCOc1n/c(=C\c2ccccc2)c(=O)n(C)/c1=C\c1ccccc1` [Compound 1826, (3Z,6Z)-3,6-Dibenzylidene-5-(3-butenyloxy)-1-methyl-3,6-dihydro-2-pyrazinone]: 40%; for `Cn1c(=O)/c(=C/c2ccccc2)nc(OCC#N)/c1=C/c1ccccc1` [Compound 1827, (3Z,6Z)-3,6-Dibenzylidene-1-methyl-2-oxo-1,2,3,6-tetrahydro-5-pyrazinyloxyacetonitrile]: 35%.

Take `CC=CCOc1n/c(=C\c2ccccc2)c(=O)n(C)/c1=C\c1ccccc1` [Compound 1861, (3Z,6Z)-3,6-Dibenzylidene-5-(2-butenyloxy)-1-methyl-3,6-dihydro-2-pyrazinone]: the Emax came to 46%. For the molecule `C=CCOc1n/c(=C\c2ccccc2)c(=O)n(C)/c1=C\c1ccccc1` [Compound 1864, (3Z,6Z)-5-Allyloxy-3,6-dibenzylidene-1-methyl-3,6-dihydro-2-pyrazinone], the Emax stood at 45%. On the same count and under the same terms, then `CC(=O)OCCCCOc1n/c(=C\c2ccccc2)c(=O)n(C)/c1=C\c1ccccc1` [Compound 1904, (3Z,6Z)-5-(4-Acetoxybutoxy)-3,6-dibenzylidene-1-methyl-3,6-dihydro-2-pyrazinone], with 47%.

Still in this assay, the particulars now being: Mus musculus, DNR 2 μM, 37° C., 1 hr.
As usually defined, the pIC50 is the IC50 on a negative log10 scale, so that one unit is a factor of ten. The low end stands for a large IC50, the high end for a small IC50. On to `COc1n/c(=C\c2ccccc2)c(=O)n(C)/c1=C\c1ccccc1` [Compound 1771], for which the pIC50 was 4.15.

Take `Cn1c(=O)/c(=C/c2ccccc2)n(CCBr)c(=O)/c1=C/c1ccccc1` [Compound 1803, (3Z,6Z)-3,6-Dibenzylidene-1-(2-bromoethyl)-4-methyl-2,5-piperazinedione]: the pIC50 was 4.10. The pIC50 values of the last two molecules are within 0.2 log units of each other. On to `Cn1c(=O)/c(=C/c2ccccc2)n(CCO)c(=O)/c1=C/c1ccccc1` [Compound 1854, (3Z,6Z)-3,6-Dibenzylidene-1-(2-hydroxyethyl)-4-methyl-2,5-piperazinedione], for which the pIC50 was 4.46. The same measure, in the same setting: the same measure for `Cn1c(=O)/c(=C/c2ccccc2)n(CCc2ccccc2)c(=O)/c1=C/c1ccccc1` [Compound 1856, (3Z,6Z)-3,6-Dibenzylidene-4-methyl-1-phenethyl-2,5-piperazinedione]: 4.82.

`CC(C)Cn1c(=O)/c(=C/c2ccccc2)n(C)c(=O)/c1=C/c1ccccc1` [Compound 1857, (3Z,6Z)-3,6-Dibenzylidene-1-isobutyl-4-methyl-2,5-piperazinedione]: the pIC50 was 5.00. On the same count and under the same terms, the same measure for `Cn1c(=O)/c(=C/c2ccccc2)n(CC#N)c(=O)/c1=C/c1ccccc1` [Compound 1858, ((3Z,6Z)-3,6-Dibenzylidene-4-methyl-2,5-dioxo-1-piperazinyl)acetonitrile]: 4.22. Same read-out and setting: the same measure for `Cn1c(=O)/c(=C/c2ccccc2)nc(OCC=CCBr)/c1=C/c1ccccc1` [Compound 1859, (3Z,6Z)-3,6-Dibenzylidene-5-(4-bromo-2-butenyloxy)-1-methyl-3,6-dihydro-2-pyrazinone]: 4.82; for `Cn1c(=O)/c(=C/c2ccccc2)n(CC=CCBr)c(=O)/c1=C/c1ccccc1` [Compound 1860]: 5.00. Turning to `CC=CCn1c(=O)/c(=C/c2ccccc2)n(C)c(=O)/c1=C/c1ccccc1` [Compound 1862, (3Z,6Z)-3,6-Dibenzylidene-1-(but-2-enyl)-4-methyl-2,5-piperazinedione], the pIC50 was 5.10. The same measure, in the same setting: then `Cn1c(=O)/c(=C/c2ccccc2)nc(OCCO)/c1=C/c1ccccc1` [Compound 1863, (3Z,6Z)-3,6-Dibenzylidene-5-(2-hydroxyethoxy)-1-methyl-3,6-dihydro-2-pyrazinone], with 5.00; and `COc1ccc(/C=c2/c(=O)n(Cc3ccccc3)/c(=C\c3c(Cl)cccc3Cl)c(=O)n2C)cc1` [Compound 1878, (3Z,6Z)-1-Benzyl-6-(2,6-dichlorobenzylidene)-3-(4-methoxybenzylidene)-4-methyl-2,5-piperazinedione], with 5.30. Take `COc1ccc(/C=c2/c(=O)n(C)/c(=C\c3ccccc3[N+](=O)[O-])c(=O)n2Cc2ccccc2)cc1` [Compound 1879, (3Z,6Z)-1-Benzyl-6-(4-methoxybenzylidene)-4-methyl-3-(2-nitrobenzylidene)-2,5-piperazinedione]: the pIC50 is 5.70. `CN(C)CCCOc1n/c(=C\c2ccccc2)c(=O)n(C)/c1=C\c1ccccc1` [Compound 1900, (3Z,6Z)-3,6-Dibenzylidene-5-(3-dimethylaminopropoxy)-1-methyl-3,6-dihydro-2-pyrazinone] gave a negative logarithm of the IC50 (pIC50) of 5.52. The same measure, in the same setting: then `Cn1c(=O)/c(=C/c2ccccc2)nc(OCc2ccncc2)/c1=C/c1ccccc1` [Compound 1901, (3Z,6Z)-3,6-Dibenzylidene-1-methyl-5-(4-pyridyl)methoxy-3,6-dihydro-2-pyrazinone], with 4.92; and `Cn1c(=O)/c(=C/c2ccccc2)nc(OCCN2C(=O)c3ccccc3C2=O)/c1=C/c1ccccc1` [Compound 1902, (3Z,6Z)-3,6-Dibenzylidene-1-methyl-5-(2-phthalimidoethoxy)-3,6-dihydro-2-pyrazinone], with 4.96.

Turning to `Cn1c(=O)/c(=C/c2ccccc2)nc(OCCCCN2C(=O)c3ccccc3C2=O)/c1=C/c1ccccc1` [Compound 1903, (3Z,6Z)-3,6-Dibenzylidene-1-methyl-5-(4-phthalimidobutoxy)-3,6-dihydro-2-pyrazinone], the negative-log IC50 (pIC50) was 5.05.
